Experimental data published in patent US7135466B2 (Kirin Beer Kabushiki Kaisha, priority 1999, dated 2006).

Target: T1, c-kit (Homo sapiens, UniProt P10721)
T1 construct: MO7e (human megakaryocytic leukemia cell line) which had been arrested for 20 hr; endogenous in cells; host or cells: MO7e human megakaryocytic leukemia cell line
Experiment: Inhibitory activity against c-kit autophosphorylation (MO7e cells, h-SCF)
Type: cell-based
Conditions: MO7e cells, 50 ng/ml h-SCF; read-out: c-kit IC50
Outline: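 MO7e cells, arrested for 20 hr, were pretreated with test compound in DMSO for 1 hr and then stimulated with 50 ng/ml h-SCF for 5 min before lysis. Lysates were captured on immobilized anti-phosphotyrosine PY-20, probed with anti-c-kit antibody and HRP anti-rabbit IgG, and read colorimetrically at 450 nm.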

T1 sequence (P10721 26-976): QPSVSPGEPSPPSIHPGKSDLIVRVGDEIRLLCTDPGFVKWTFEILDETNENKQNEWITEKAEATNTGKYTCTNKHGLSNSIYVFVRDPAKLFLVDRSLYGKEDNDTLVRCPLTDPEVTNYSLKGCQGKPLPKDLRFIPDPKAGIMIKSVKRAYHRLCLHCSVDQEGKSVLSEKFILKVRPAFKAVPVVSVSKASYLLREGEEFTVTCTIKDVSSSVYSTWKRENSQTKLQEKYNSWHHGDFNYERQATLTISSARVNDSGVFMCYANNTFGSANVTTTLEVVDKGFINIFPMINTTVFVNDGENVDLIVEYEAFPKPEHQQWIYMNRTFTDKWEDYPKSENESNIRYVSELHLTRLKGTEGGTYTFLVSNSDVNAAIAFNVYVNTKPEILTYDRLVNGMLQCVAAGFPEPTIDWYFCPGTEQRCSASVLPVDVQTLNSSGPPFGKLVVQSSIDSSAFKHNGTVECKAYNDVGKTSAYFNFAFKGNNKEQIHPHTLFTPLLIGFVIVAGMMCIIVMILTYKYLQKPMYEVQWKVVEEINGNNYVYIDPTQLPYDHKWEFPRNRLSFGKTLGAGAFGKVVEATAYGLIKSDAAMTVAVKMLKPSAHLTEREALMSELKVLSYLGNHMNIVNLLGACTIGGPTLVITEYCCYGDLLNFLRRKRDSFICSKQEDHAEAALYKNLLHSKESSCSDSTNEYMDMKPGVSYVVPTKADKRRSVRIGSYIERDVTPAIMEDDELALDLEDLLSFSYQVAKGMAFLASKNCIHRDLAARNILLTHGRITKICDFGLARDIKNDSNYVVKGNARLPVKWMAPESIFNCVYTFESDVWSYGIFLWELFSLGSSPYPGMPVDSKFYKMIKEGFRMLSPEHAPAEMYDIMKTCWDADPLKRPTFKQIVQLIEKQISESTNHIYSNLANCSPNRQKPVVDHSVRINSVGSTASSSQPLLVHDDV

Point of comparison: `COc1ccc(NCCOc2ccc(Oc3ccnc4cc(OC)c(OC)cc34)cc2)cc1` [Example 781, N-(2-{4-[(6,7-Dimethoxy-4-quinolyl)oxy]phenoxy}ethyl)-N-(4-methoxyphenyl)amine], IC50 135 nM. Against it:
- COc1cc2nccc(Oc3ccc(OCC(=O)Nc4cccc(C)c4)cc3)c2cc1OC [Example 784, N1-(3-Methylphenyl)-2-{4-[(6,7-dimethoxy-4-quinolyl)oxy]phenoxy}acetamide] — 1.7-fold lower, 80 nM

Same assay, conditions: MO7e cells, h-SCF 50 ng/ml; read-out: c-kit IC50

Point of comparison: `COc1cc2nccc(Oc3ccc(NC(=O)OC4CCCCC4)c(C)c3C)c2cc1OC` [Example 222, Cyclohexyl N-{4-[(6,7-dimethoxy-4-quinolyl)oxy]-2,3-dimethylphenyl}carbamate], IC50 101 nM. Against it:
- COc1cc2nccc(Oc3ccc(NC(=O)OCc4ccccc4)c(C)c3C)c2cc1OC [Example 219, Benzyl N-{4-[(6,7-dimethoxy-4-quinolyl)oxy]-2,3-dimethylphenyl}carbamate] — lower, < 30 nM
- COc1cccc(COC(=O)Nc2ccc(Oc3ccnc4cc(OC)c(OC)cc34)cc2)c1 [Example 226, 3-Methoxybenzyl N-{4-[(6,7-dimethoxy-4-quinolyl)oxy]phenyl}carbamate] — within 1.5-fold, 72 nM

Same assay, conditions: MO7e cells, h-SCF stimulation; read-out: c-kit IC50

Point of comparison: `COc1cccc(C(=O)NC(=S)Nc2ccc(Oc3ccnc4cc(OC)c(OC)cc34)cc2F)c1` [Example 939, N-{4-[(6,7-Dimethoxy-4-quinolyl)oxy]-2-fluorophenyl}-N′-(3-methoxybenzoyl)thiourea], IC50 220 nM. Against it:
- CCc1ccc(OCCNc2ccc(Oc3ccnc4cc(OC)c(OC)cc34)cc2)cc1 [Example 864, N-{4-[(6,7-Dimethoxy-4-quinolyl)oxy]phenyl}-N-[2-(4-ethylphenoxy)ethyl]amine] — 6.9-fold lower, 32 nM
- COc1cc2nccc(Oc3ccc(NCCOc4ccc(C)cc4)cc3)c2cc1OC [Example 870, N-{4-[(6,7-Dimethoxy-4-quinolyl)oxy]phenyl}-N-[2-(4-methylphenoxy)ethyl]amine] — 4.6-fold lower, 48 nM
- COc1cc2nccc(Oc3ccc(NCCOc4c(C)cccc4C)cc3)c2cc1OC [Example 855, N-{4-[(6,7-Dimethoxy-4-quinolyl)oxy]phenyl}-N-[2-(2,6-dimethylphenoxy)ethyl]amine] — 1.8-fold higher, 399 nM
- COc1ccc(C(=O)NC(=S)Nc2ccc(Oc3ccnc4cc(OC)c(OC)cc34)cc2)cc1 [Example 963, N-{4-[(6,7-Dimethoxy-4-quinolyl)oxy]phenyl}-N′-(4-methoxybenzoyl)thiourea] — 3.2-fold higher, 701 nM
- COc1cc2nccc(Oc3ccc(NC(=S)NC(=O)c4cccc(Cl)c4)cc3)c2cc1OC [Example 932, N-(3-Chlorobenzoyl)-N′-{4-[(6,7-dimethoxy-4-quinolyl)oxy]phenyl}thiourea] — within 1.5-fold, 208 nM
- COc1ccc(OCCNc2ccc(Oc3ccnc4cc(OC)c(OC)cc34)cc2)cc1 [Example 863, N-{4-[(6,7-Dimethoxy-4-quinolyl)oxy]phenyl}-N-[2-(4-methoxyphenoxy)ethyl]amine] — 7.1-fold lower, 31 nM
- COc1cc2nccc(Oc3ccc(NC(=S)NC(=O)c4sccc4C)c(F)c3)c2cc1OC [Example 1038, N-{4-[(6,7-Dimethoxy-4-quinolyl)oxy]-2-fluorophenyl}-N′-[(3-methyl-2-thienyl)carbonyl]thiourea] — 2.7-fold higher, 597 nM
- COc1cccc(C(=O)NC(=S)Nc2ccc(Oc3ccnc4cc(OC)c(OC)cc34)cc2)c1 [Example 933, N-{4-[(6,7-Dimethoxy-4-quinolyl)oxy]phenyl}-N′-(3-methoxybenzoyl)thiourea] — 2.2-fold higher, 493 nM
- COc1ccc(C(=O)NC(=S)Nc2ccc(Oc3ccnc4cc(OC)c(OC)cc34)c(C)c2C)cc1 [Example 1087, N-{4-[(6,7-Dimethoxy-4-quinolyl)oxy]-2,3-dimethylphenyl}-N′-(4-methoxybenzoyl)thiourea] — 2.2-fold higher, 495 nM
- COc1cc2nccc(Oc3ccc(NC(=S)NC(=O)c4cccc(Cl)c4)c(F)c3)c2cc1OC [Example 938, N-(3-Chlorobenzoyl)-N′-{4-[(6,7-dimethoxy-4-quinolyl)oxy]-2-fluorophenyl}thiourea] — 2.4-fold higher, 532 nM
- COc1cc2nccc(Oc3ccc(NC(=S)NC(=O)c4cccc(F)c4)cc3F)c2cc1OC [Example 942, N-{4-[(6,7-Dimethoxy-4-quinolyl)oxy]-3-fluorophenyl}-N′-(3-fluorobenzoyl)thiourea] — 1.5-fold higher, 335 nM
- COc1cc2nccc(Oc3ccc(NCCOc4ccc(Cl)cc4)cc3)c2cc1OC [Example 859, N-[2-(4-Chlorophenoxy)ethyl]-N-{4-[(6,7-dimethoxy-4-quinolyl)oxy]phenyl}amine] — 1.7-fold lower, 130 nM
- COc1cc2ncnc(Oc3ccc(NC(=S)NC(=O)c4cccc(C)c4)cc3)c2cc1OC [Example 954, N-{4-[(6,7-Dimethoxy-4-quinazolinyl)-oxy]phenyl}-N′-(3-methylbenzoyl)thiourea] — 1.7-fold lower, 131 nM
- COc1cc2nccc(Oc3ccc(NC(=S)NC(=O)c4ccc(Cl)cc4)cc3C)c2cc1OC [Example 1111, N-(4-Chlorobenzoyl)-N′-{4-[(6,7-dimethoxy-4-quinolyl)oxy]-3-methylphenyl}thiourea] — 1.8-fold higher, 405 nM
- COc1cc2nccc(Oc3ccc(NC(=S)NC(=O)c4cccc(Br)c4)c(F)c3)c2cc1OC [Example 940, N-(3-Bromobenzoyl)-N′-{4-[(6,7-dimethoxy-4-quinolyl)oxy]-2-fluorophenyl}thiourea] — within 1.5-fold, 292 nM
- COc1cc2nccc(Oc3ccc(NC(=S)NC(=O)c4ccc(Cl)cc4Cl)cc3Cl)c2cc1OC [Example 1114, N-{3-Chloro-4-[(6,7-dimethoxy-4-quinolyl)oxy]phenyl}-N′-(2,4-dichlorobenzoyl)thiourea] — 3.1-fold higher, 674 nM
- COc1cc2nccc(Oc3ccc(NC(=S)NC(=O)c4cccc(F)c4)cc3Cl)c2cc1OC [Example 948, N-{3-Chloro-4-[(67-dimethoxy-4-quinolyl)oxy]phenyl}-N′-(3-fluorobenzoyl)thiourea] — 3.8-fold higher, 830 nM
- COc1cc2nccc(Oc3ccc(SCCOc4ccc(C)cc4)cc3)c2cc1OC [Example 814, 6,7-Dimethoxy-4-(4-{[2-(4-methylphenoxy)ethyl]sulfanyl}phenoxy)quinoline] — 1.8-fold higher, 405 nM
- COc1cc2nccc(Oc3ccc(NC(=S)NC(=O)c4ccc5c(c4)OCO5)cc3F)c2cc1OC [Example 1145, N-(1,3-Benzodioxol-5-ylcarbonyl)-N′-{4-[(6,7-dimethoxy-4-quinolyl)oxy]-3-fluorophenyl}thiourea] — 2.5-fold higher, 548 nM

Same assay, conditions: Mo7e, figure in parentheses in −( ); at 1000 nM

Point of comparison: `COc1cc2nccc(Oc3ccc(NC(=S)NC(=O)c4c(Cl)cccc4Cl)cc3Cl)c2cc1OC` [Example 1115, N-{3-Chloro-4-[(6,7-dimethoxy-4-quinolyl)oxy]phenyl}-N′-(2,6-dichlorobenzoyl)thiourea], inhibition at 1 µM 10%. Against it:
- COc1cc2nccc(Oc3ccc(NC(=S)NC(=O)c4ccc(Br)cc4)cc3F)c2cc1OC [Example 973, N-(4-Bromobenzoyl)-N′-{4-[(6,7-dimethoxy-4-quinolyl)oxy]-3-fluorophenyl}thiourea] — lower, 0%
- COc1cc2nccc(Oc3ccc(NC(=S)NC(=O)c4ccc(Cl)cc4Cl)cc3F)c2cc1OC [Example 1014, N-(2,4-Dichlorobenzoyl)-N′-{4-[(6,7-dimethoxy-4-quinolyl)oxy]-3-fluorophenyl}thiourea] — higher, 30%
- COc1ccc(C(=O)NC(=S)Nc2ccc(Oc3ccnc4cc(OC)c(OC)cc34)c(Cl)c2)cc1 [Example 983, N-{3-Chloro-4-[(6,7-dimethoxy-4-quinolyl)oxy]phenyl}-N′-(4-methoxybenzoyl)thiourea] — higher, 39%
- COc1cc2nccc(Oc3ccc(NC(=S)NC(=O)c4ccccc4F)cc3Cl)c2cc1OC [Example 921, N-{3-Chloro-4-[(6,7-dimethoxy-4-quinolyl)oxy]phenyl}-N′-(2-fluorobenzoyl)thiourea] — higher, 42%
- COc1cc2nccc(Oc3ccc(NC(=S)NC(=O)c4ccccc4C)cc3Cl)c2cc1OC [Example 919, N-{3-Chloro-4-[(6,7-dimethoxy-4-quinolyl)oxy]phenyl}-N′-(2-methylbenzoyl)thiourea] — higher, 11%
- COc1cc2nccc(Oc3ccc(NC(=S)NC(=O)c4ccc(Cl)cc4)c(F)c3)c2cc1OC [Example 965, N-(4-Chlorobenzoyl)-N′-{4-[(6,7-dimethoxy-4-quinolyl)oxy]-2-fluorophenyl}thiourea] — higher, 24%
- COc1cc2nccc(Oc3ccc(NC(=S)NC(=O)c4ccc(F)cc4)cc3Cl)c2cc1OC [Example 979, N-{3-Chloro-4-[(6,7-dimethoxy-4-quinolyl)oxy]phenyl}-N′-(4-fluorobenzoyl)thiourea] — higher, 25%
- COc1cc2nccc(Oc3ccc(NC(=S)NC(=O)c4ccc(F)cc4F)cc3F)c2cc1OC [Example 1013, N-(2,4-Difluorobenzoyl)-N′-{4-[(6,7-dimethoxy-4-quinolyl)oxy]-3-fluorophenyl}thiourea] — higher, 22%
- COc1cc2nccc(Oc3ccc(NC(=S)NC(=O)c4ccc(Cl)cc4)c(C)c3C)c2cc1OC [Example 1082, N-(4-Chlorobenzoyl)-N′-{4-[(6,7dimethoxy-4-quinolyl)oxy]-2,3-dimethylphenyl}thiourea] — higher, 15%
- COc1ccc(C(=O)NC(=S)Nc2ccc(Oc3ccnc4cc(OC)c(OC)cc34)cc2F)cc1 [Example 969, N-{4-[(6,7-Dimethoxy-4-quinolyl)oxy]-2-fluorophenyl}-N′-(4-methoxybenzoyl)thiourea] — higher, 19%
- COc1cc2nccc(Oc3ccc(NC(=S)NC(=O)c4c(Cl)cccc4Cl)c(F)c3)c2cc1OC [Example 1012, N-(2,6-Dichlorobenzoyl)-N′-{4-[(6,7-dimethoxy-4-quinolyl)oxy]-2-fluorophenyl}thiourea] — higher, 24%

Same assay, conditions: Mo7e, figure within parentheses in −( ) or >1000( ); at 1000 nM

With `COc1cc2nccc(Oc3ccc(NC(=O)NN4CCCCC4)c(F)c3)c2cc1OC` [Example 613, N-{4-[(6,7-Dimethoxy-4-quinolyl)oxy]-2-fluorophenyl}-N′-(1-piperidinyl)urea] the inhibition at 1 µM was 29%.
